In assay [1] the target is T1, Recombinant human integrin αVβ3 (Homo sapiens, UniProt P05106+P06756).
T1 construct: purchased R&D Systems 3050-AV
Briefly: Solid Phase Receptor Assay for αVβ3 function. The class given is binding. The note with it: plate-bound human vitronectin; read-out: αVβ3 SPRA IC50. As for the experimental part: C. […] Wells were washed 3 times with 150 μL TBS+ and then 150 μL of blocking buffer (TBS+ with 1% bovine serum albumin, Sigma A7906) was added. The plate was incubated for 1 hr at 37° C. and then washed 3× with TBS+ buffer. […] Compounds were diluted to 20 μM and then 1 μL was added to each well of the plate according to a standard template with each sample repeated in triplicate. After incubation for two hours at room temperature, the plate was washed 3× with 150 μL of TBS+ buffer. To each well, 50 μL of biotinylated anti-αV antibody (R&D Systems, BAF1219) at 0.5 μg/mL in TBS+/0.1% BSA were added and the plate covered and incubated for 1 hr at room temperature. After washing the plate 3× with 150 μL of TBS+ buffer, 50 μL of streptavidin-conjugated horseradish peroxidase (R&D Systems, DY998) diluted in TBS+ blocking buffer were added to the wells and the plate incubated for 20 min at room temperature. The plate was washed 3× with TBS+ buffer followed by 50 μL of TMB substrate (Sigma, T4444) added to each well in the dark and the plate was incubated for 25 min at room temperature. 25 μL of 1.0 M phosphoric acid was added as a stop solution and the plates were read at 450 nm using a Spectramax plate reader.

Assay [2] concerns the target T2, Recombinant human integrin αVβ5 (Homo sapiens, UniProt P06756+P18084).
T2 construct: purchased R&D Systems 2528-AV
Briefly: Solid Phase Receptor Assay (SPRA) for αVβ5 function. The note with it: plate-bound human vitronectin. The class given is binding. As for the experimental part: D. Solid Phase Receptor Assay (SPRA) for αVβ5 Function
Wells were washed 3 times with 150 μL TBS+ and then 150 μL of blocking buffer (TBS+ with 1% bovine serum albumin, Sigma A7906) was added. The plate was incubated for 1 hr at 37° C. and then washed 3× with TBS+ buffer. […] Compounds were diluted to 20 μM and then 1 μL was added to each well of the plate according to a standard template with each sample repeated in triplicate. After incubation for two hours at room temperature, the plate was washed 3× with 150 μL of TBS+ buffer. To each well, 50 μl of biotinylated anti-αV antibody (R&D Systems, BAF1219) at 0.5 μg/mL in TBS+/0.1% BSA at 0.5 μg/mL were added and the plate covered and incubated for 1 hr at room temperature. After washing the plate 3× with 150 μL of TBS+ buffer, 50 μL of streptavidin-conjugated horseradish peroxidase (R&D Systems, DY998) diluted in TBS+ blocking buffer were added to the wells and the plate incubated for 20 min at room temperature. The plate was washed 3× with TBS+ buffer followed by 50 μL of TMB substrate (Sigma T4444) added to each well in the dark and the plate incubated for 5 min at room temperature. 25 μL of 1.0 M phosphoric acid was added as a stop solution and the plates were read at 450 nm using a Spectramax plate reader.

Structures are written as SMILES. Where a name gives a salt, the structure may show the parent alone.

T1 sequence (P06756 31-992 limits assumed): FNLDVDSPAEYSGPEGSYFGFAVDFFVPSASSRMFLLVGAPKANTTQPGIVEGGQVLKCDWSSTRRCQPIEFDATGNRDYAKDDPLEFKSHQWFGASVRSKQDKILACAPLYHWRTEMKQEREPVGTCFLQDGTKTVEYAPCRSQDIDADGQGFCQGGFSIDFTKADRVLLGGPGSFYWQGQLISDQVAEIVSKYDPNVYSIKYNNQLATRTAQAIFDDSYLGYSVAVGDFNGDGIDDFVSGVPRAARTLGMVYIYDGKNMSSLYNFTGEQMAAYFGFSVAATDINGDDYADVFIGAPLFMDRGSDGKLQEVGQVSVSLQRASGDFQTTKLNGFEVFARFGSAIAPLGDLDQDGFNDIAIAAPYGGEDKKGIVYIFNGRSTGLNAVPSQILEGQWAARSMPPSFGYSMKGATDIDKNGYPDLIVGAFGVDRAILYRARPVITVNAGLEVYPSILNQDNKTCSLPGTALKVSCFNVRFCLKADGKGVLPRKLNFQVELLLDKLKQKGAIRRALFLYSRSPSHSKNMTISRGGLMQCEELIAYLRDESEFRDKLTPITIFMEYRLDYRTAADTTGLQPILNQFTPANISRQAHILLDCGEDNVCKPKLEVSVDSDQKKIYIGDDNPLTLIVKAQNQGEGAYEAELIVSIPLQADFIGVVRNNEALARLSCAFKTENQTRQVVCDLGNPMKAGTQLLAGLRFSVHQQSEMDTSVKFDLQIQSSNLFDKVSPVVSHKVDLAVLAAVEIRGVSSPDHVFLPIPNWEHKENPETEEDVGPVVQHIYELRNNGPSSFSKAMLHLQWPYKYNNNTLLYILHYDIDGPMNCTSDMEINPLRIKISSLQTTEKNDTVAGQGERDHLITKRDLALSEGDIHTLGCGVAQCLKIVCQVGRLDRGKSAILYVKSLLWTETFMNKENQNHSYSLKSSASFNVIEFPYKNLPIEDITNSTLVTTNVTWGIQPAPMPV
T1 sequence (P05106 27-718 limits assumed): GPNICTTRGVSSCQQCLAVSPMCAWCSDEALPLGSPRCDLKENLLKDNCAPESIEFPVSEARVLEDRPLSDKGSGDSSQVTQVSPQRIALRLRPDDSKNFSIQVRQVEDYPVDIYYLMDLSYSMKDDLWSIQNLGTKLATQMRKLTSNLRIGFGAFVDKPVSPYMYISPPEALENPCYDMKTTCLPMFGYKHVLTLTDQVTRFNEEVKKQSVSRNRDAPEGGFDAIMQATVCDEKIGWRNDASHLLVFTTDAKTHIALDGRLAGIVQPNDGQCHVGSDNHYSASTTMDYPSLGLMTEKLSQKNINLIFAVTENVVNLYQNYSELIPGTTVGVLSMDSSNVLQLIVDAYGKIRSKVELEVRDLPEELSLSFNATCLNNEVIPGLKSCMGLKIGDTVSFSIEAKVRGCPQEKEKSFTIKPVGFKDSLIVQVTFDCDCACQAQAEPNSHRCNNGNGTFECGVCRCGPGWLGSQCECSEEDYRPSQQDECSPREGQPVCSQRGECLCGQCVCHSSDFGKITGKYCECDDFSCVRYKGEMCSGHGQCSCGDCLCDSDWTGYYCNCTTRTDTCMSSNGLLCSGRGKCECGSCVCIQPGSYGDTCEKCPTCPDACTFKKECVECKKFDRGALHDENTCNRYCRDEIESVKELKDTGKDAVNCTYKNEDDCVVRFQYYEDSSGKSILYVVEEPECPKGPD
T2 sequence (P06756 31-992 limits assumed): as the sequence (P06756 31-992 limits assumed) above
T2 sequence (P18084 24-719 limits assumed): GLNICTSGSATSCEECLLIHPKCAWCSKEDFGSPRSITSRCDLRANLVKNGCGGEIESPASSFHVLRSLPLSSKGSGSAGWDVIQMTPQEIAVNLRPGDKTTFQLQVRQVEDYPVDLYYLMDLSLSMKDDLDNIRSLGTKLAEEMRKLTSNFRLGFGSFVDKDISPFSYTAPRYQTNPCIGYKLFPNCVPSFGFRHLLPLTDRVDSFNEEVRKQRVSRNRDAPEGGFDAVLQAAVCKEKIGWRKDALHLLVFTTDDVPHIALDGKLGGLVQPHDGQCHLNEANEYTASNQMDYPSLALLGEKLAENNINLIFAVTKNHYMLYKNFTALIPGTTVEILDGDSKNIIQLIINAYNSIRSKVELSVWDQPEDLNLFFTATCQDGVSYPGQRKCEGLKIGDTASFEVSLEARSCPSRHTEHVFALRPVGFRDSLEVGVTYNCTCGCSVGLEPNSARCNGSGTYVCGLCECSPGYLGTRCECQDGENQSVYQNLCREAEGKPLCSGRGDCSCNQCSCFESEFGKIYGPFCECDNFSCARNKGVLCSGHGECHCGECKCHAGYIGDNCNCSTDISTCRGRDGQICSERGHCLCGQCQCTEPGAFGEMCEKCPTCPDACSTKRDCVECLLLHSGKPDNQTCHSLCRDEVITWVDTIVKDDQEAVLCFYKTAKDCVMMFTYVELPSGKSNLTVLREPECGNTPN

For orientation: IC50 means the midpoint of a concentration-inhibition curve. Take `COc1ccc(C2(C(F)F)CC2)cc1C(CC(=O)O)Cc1cc(OCCc2ccc3c(n2)NCCC3)n(C)n1` (stereo not drawn) [Example 21, 3-[5-[1-(difluoromethyl)cyclopropyl]-2-methoxy-phenyl]-4-[1-methyl-5-[2-(5,6,7,8-tetrahydro-1,8-naphthyridin-2-yl)ethoxy]pyrazol-3-yl]butanoic acid]: the IC50 stood at 340 nM in assay [1] and 290 nM in assay [2].

As to `COc1ccc(C(C)(C)O)cc1C(CC(=O)O)Cc1cc(OCCc2ccc3c(n2)NCCC3)n(C)n1` (stereo not drawn) [Example 22, 3-(5-(2-hydroxypropan-2-yl)-2-methoxyphenyl)-4-(1-methyl-5-(2-(5,6,7,8-tetrahydro-1,8-naphthyridin-2-yl)ethoxy)-1H-pyrazol-3-yl)butanoic acid], the IC50 stood at 5 nM in assay [1] and 10 nM in assay [2].

With `COc1ccc(C2COC2)cc1C(CC(=O)O)Cc1cc(OCCc2ccc3c(n2)NCCC3)n(C)n1` (stereo not drawn) [Example 23, 3-[2-methoxy-5-(oxetan-3-yl)phenyl]-4-[1-methyl-5-[2-(5,6,7,8-tetrahydro-1,8-naphthyridin-2-yl)ethoxy]pyrazol-3-yl]butanoic acid], the results for the IC50 in assay [1] and in assay [2] were 26 nM and 29 nM, respectively.

In the case of `COc1ccc(S(F)(F)(F)(F)F)cc1C(CC(=O)O)Cc1cc(OCCc2ccc3c(n2)NCCC3)n(C)n1` (stereo not drawn) [Example 24, 3-[2-methoxy-5-(pentafluoro-sulfanyl)phenyl]-4-[1-methyl-5-[2-(5,6,7,8-tetrahydro-1,8-naphthyridin-2-yl)ethoxy]pyrazol-3-yl]butanoic acid], the IC50 in assay [1] is 130 nM; in assay [2], 96 nM.

For `COc1c(C(C)C)cc(C(CC(=O)O)Cc2cc(OCCc3ccc4c(n3)NCCC4)n(C)n2)cc1C(C)C` (stereo not drawn) [Example 25, 3-(3,5-diisopropyl-4-methoxy-phenyl)-4-[1-methyl-5-[2-(5,6,7,8-tetrahydro-1,8-naphthyridin-2-yl)ethoxy]pyrazol-3-yl]butanoic acid], the figures for the IC50 in assay [1] and in assay [2] were 37 nM and 78 nM, respectively.

On to `COc1c(C(C)C)cc(C(CC(=O)O)Cc2csc(CCCc3ccc4c(n3)NCCC4)n2)cc1C(C)C` (stereo not drawn) [Example 26, 3-(3,5-diisopropyl-4-methoxy-phenyl)-4-[2-[3-(5,6,7,8-tetrahydro-1,8-naphthyridin-2-yl)propyl]thiazol-4-yl]butanoic acid], for which the IC50 in assay [1] is 530 nM; in assay [2], 610 nM.

As to `CC(C)(C)c1cc(C(CC(=O)O)Cc2csc(CCCc3ccc4c(n3)NCCC4)n2)cc(C(C)(C)C)c1` (stereo not drawn) [Example 27, 3-(3,5-di-tert-butylphenyl)-4-(2-(3-(5,6,7,8-tetrahydro-1,8-naphthyridin-2-yl)propyl)thiazol-4-yl)butanoic acid], the IC50 in assay [1] amounted to 2900 nM; in assay [2], 1100 nM.

Turning to `COc1ccc(C(C)(C)C)cc1C(CC(=O)O)Cc1csc(CCCc2ccc3c(n2)NCCC3)n1` (stereo not drawn) [Example 28, 3-(5-(tert-butyl)-2-methoxyphenyl)-4-(2-(3-(5,6,7,8-tetrahydro-1,8-naphthyridin-2-yl)propyl)thiazol-4-yl)butanoic acid], the IC50 in assay [1] is 1500 nM; in assay [2], 440 nM.

As for `COc1c(C(C)(C)C)cc(C(CC(=O)O)Cc2csc(CCCc3ccc4c(n3)NCCC4)n2)cc1C(C)(C)C` (stereo not drawn) [Example 29, 3-(3,5-di-tert-butyl-4-methoxyphenyl)-4-(2-(3-(5,6,7,8-tetrahydro-1,8-naphthyridin-2-yl)propyl)thiazol-4-yl)butanoic acid], the IC50 in assay [1] is 1600 nM; in assay [2] it was 800 nM.

For the molecule `CC(C)(C)c1cc(C(CC(=O)O)Cc2csc(CCCc3ccc4c(n3)NCCC4)n2)cc(C2(C(F)F)CC2)c1` (stereo not drawn) [Example 30, 3-[3-tert-butyl-5-[1-(difluoromethyl)cyclopropyl]phenyl]-4-[2-[3-(5,6,7,8-tetrahydro-1,8-naphthyridin-2-yl)propyl]thiazol-4-yl]butanoic acid], the IC50 in assay [1] was determined as 720 nM; in assay [2] it was 260 nM.

Regarding `CC(C)(C)c1cc(C(CC(=O)O)Cc2csc(CCCc3ccc4c(n3)NCCC4)n2)cc(C(C)(C)C(F)(F)F)c1` (stereo not drawn) [Example 31, 3-[3-tert-butyl-5-(2,2,2-trifluoro-1,1-dimethyl-ethyl)phenyl]-4-[2-[3-(5,6,7,8-tetrahydro-1,8-naphthyridin-2-yl)propyl]thiazol-4-yl]butanoic acid], the IC50 in assay [1] came out at 2600 nM; in assay [2], 1500 nM.

For the molecule `COCC1(c2cc(C(CC(=O)O)Cc3csc(CCCc4ccc5c(n4)NCCC5)n3)cc(C(C)(C)C)c2)CCOCC1` (stereo not drawn) [Example 32, 3-[3-tert-butyl-5-[4-(methoxymethyl)tetrahydropyran-4-yl]phenyl]-4-[2-[3-(5,6,7,8-tetrahydro-1,8-naphthyridin-2-yl)propyl]thiazol-4-yl]butanoic acid], the concentration for half-maximal inhibition (IC50) in assay [1] is 600 nM; in assay [2], 240 nM.

In the case of `CC(C)(C)c1ccc(C#N)c(C(CC(=O)O)Cc2csc(CCCc3ccc4c(n3)NCCC4)n2)c1` (stereo not drawn) [Example 33, 3-(5-tert-butyl-2-cyano-phenyl)-4-[2-[3-(5,6,7,8-tetrahydro-1,8-naphthyridin-2-yl)propyl]thiazol-4-yl]butanoic acid], the IC50 in assay [1] was determined as 38 nM; in assay [2] it was 32 nM.

In the case of `CC(C)(C)c1ccc(Br)c(C(CC(=O)O)Cc2csc(CCCc3ccc4c(n3)NCCC4)n2)c1` (stereo not drawn) [Example 34], the results for the IC50 in assay [1] and in assay [2] were 2500 nM and 360 nM, respectively.

Consider `COc1ccc(C(F)(F)F)cc1C(CC(=O)O)Cc1csc(CCCc2ccc3c(n2)NCCC3)n1` (stereo not drawn) [Example 35, 3-[2-methoxy-5-(trifluoromethyl)phenyl]-4-[2-[3-(5,6,7,8-tetrahydro-1,8-naphthyridin-2-yl)propyl]thiazol-4-yl]butanoic acid], for which the IC50 in assay [1] is 78 nM; in assay [2], 69 nM.

Regarding `COc1ccc(C2(C(F)F)CC2)cc1C(CC(=O)O)Cc1csc(CCCc2ccc3c(n2)NCCC3)n1` (stereo not drawn) [Example 36, 3-(5-(1-(difluoromethyl)cyclopropyl)-2-methoxyphenyl)-4-(2-(3-(5,6,7,8-tetrahydro-1,8-naphthyridin-2-yl)propyl)thiazol-4-yl)butanoic acid], the IC50 in assay [1] came to 840 nM; in assay [2], 150 nM.

`COc1ccc(C2=CCOCC2)cc1C(CC(=O)O)Cc1csc(CCCc2ccc3c(n2)NCCC3)n1` (stereo not drawn) [Example 37, 3-[5-(3,6-dihydro-2H-pyran-4-yl)-2-methoxy-phenyl]-4-[2-[3-(5,6,7,8-tetrahydro-1,8-naphthyridin-2-yl)propyl]thiazol-4-yl]butanoic acid]: the IC50 amounted to 230 nM in assay [1] and 37 nM in assay [2].

For the molecule `COc1ccc(C2=CCOCC2)cc1[C@H](CC(=O)O)Cc1csc(CCCc2ccc3c(n2)NCCC3)n1` [Example 37A, (S)-3-(5-(3,6-dihydro-2H-pyran-4-yl)-2-methoxyphenyl)-4-(2-(3-(5,6,7,8-tetrahydro-1,8-naphthyridin-2-yl)propyl)thiazol-4-yl)butanoic acid trifluoroacetate], the values for the IC50 in assay [1] and in assay [2] were 160 nM and 31 nM, respectively.

In the case of `COc1ccc(C2=CCOCC2)cc1[C@@H](CC(=O)O)Cc1csc(CCCc2ccc3c(n2)NCCC3)n1` [Example 37B, (R)-3-(5-(3,6-dihydro-2H-pyran-4-yl)-2-methoxyphenyl)-4-(2-(3-(5,6,7,8-tetrahydro-1,8-naphthyridin-2-yl)propyl)thiazol-4-yl)butanoic acid trifluoroacetate], the IC50 was 940 nM in assay [1] and 62 nM in assay [2].

As for `Cc1cc(C)n(-c2cccc(C(CC(=O)O)Cc3csc(CCc4ccc5c(n4)NCCC5)n3)c2)n1` (stereo not drawn) [Example 38, 3-(3-(3,5-dimethyl-1H-pyrazol-1-yl)phenyl)-4-(2-(2-(5,6,7,8-tetrahydro-1,8-naphthyridin-2-yl)ethyl)thiazol-4-yl)butanoic acid], the half-maximal inhibitory concentration (IC50) was found to be 9 nM in assay [1] and 0.7 nM in assay [2].

Take `CC(C)(C)c1cc(C(CC(=O)O)Cc2cc(OCCc3ccc4c(n3)NCCC4)n(CC(F)(F)F)n2)cc(C(C)(C)C)c1` (stereo not drawn) [Example 40, 3-(3,5-di-tert-butylphenyl)-4-(5-(2-(5,6,7,8-tetrahydro-1,8-naphthyridin-2-yl)ethoxy)-1-(2,2,2-trifluoroethyl)-1H-pyrazol-3-yl)butanoic acid trifluoroacetate]: the figures for the IC50 in assay [1] and in assay [2] were 740 nM and 180 nM, respectively.
